We go through eleven compounds from PubChem BioAssay AID1259407 (Chemical Carcinogenesis Research Information System (CCRIS), 2018).

The structures appear in SMILES notation. Active and inactive are the calls of the source. How the calls were made is not given here.

This data set deals with CCRIS mutagenicity, Ames/micronucleus/aberration tests. Kind of data set: CCRIS mutagenicity studies.
[1] abbreviates: Test System: AMES SALMONELLA TYPHIMURIUM, Strain/Indicator: TA98, Metabolic Activation: S-9, Method: STANDARD PLATE.
The mark [2] stands for this setting: Test System: AMES SALMONELLA TYPHIMURIUM, Strain/Indicator: TA100, Metabolic Activation: S-9, Method: STANDARD PLATE.
Setting [3] is: Test System: AMES SALMONELLA TYPHIMURIUM, Strain/Indicator: TA98(1,8-DNP6), Metabolic Activation: NONE, Method: STANDARD PLATE.
Where [4] appears, read: Test System: AMES SALMONELLA TYPHIMURIUM, Strain/Indicator: TA98, Metabolic Activation: NONE, Method: STANDARD PLATE.
[5] abbreviates: Test System: AMES SALMONELLA TYPHIMURIUM, Strain/Indicator: TA100, Metabolic Activation: NONE, Method: STANDARD PLATE.
[6] abbreviates: Test System: AMES SALMONELLA TYPHIMURIUM, Strain/Indicator: TA98, Metabolic Activation: RAT, LIVER, S-9, AROCLOR 1254, Method: STANDARD PLATE.

Consider `Oc1ccc(Oc2c(Cl)cc(Cl)cc2Cl)cc1`, for which the mutagenic call under setting [1] was “inactive; negative”; the mutagenic call under setting [2] was “inactive; negative”; the mutagenic call (Test System: AMES SALMONELLA TYPHIMURIUM, Strain/Indicator: YG1021, Metabolic Activation: S-9, Method: STANDARD PLATE) is “inactive; negative”; the mutagenic call (Test System: AMES SALMONELLA TYPHIMURIUM, Strain/Indicator: YG1024, Metabolic Activation: S-9, Method: STANDARD PLATE) is “inactive; negative”; the mutagenic call (Test System: AMES SALMONELLA TYPHIMURIUM, Strain/Indicator: YG1026, Metabolic Activation: S-9, Method: STANDARD PLATE) is “inactive; negative”; the mutagenic call (Test System: AMES SALMONELLA TYPHIMURIUM, Strain/Indicator: YG1029, Metabolic Activation: S-9, Method: STANDARD PLATE) was “inactive; negative”.
In the case of `COC(=O)c1cc(-c2ccc(N)c(C(=O)OC)c2)ccc1N`, the mutagenic call under setting [3] was “inactive; negative”; the mutagenic call (Test System: AMES SALMONELLA TYPHIMURIUM, Strain/Indicator: TA98(1,8-DNP6), Metabolic Activation: S-9, Method: STANDARD PLATE) was “active; positive”; the mutagenic call under setting [4] was “inactive; negative”; the mutagenic call under setting [1] was “active; positive”; the mutagenic call under setting [5] is “inactive; negative”; the mutagenic call under setting [2] is “inactive; negative”.
Turning to `COc1cccc2c1C(=O)c1c(O)c3c(c(O)c1C2=O)C[C@@](O)(C(=O)CO)C[C@@H]3O[C@H]1C[C@H](N)C[C@H](C)O1`, the mutagenic call was “active; positive” (Test System: AMES SALMONELLA TYPHIMURIUM, Strain/Indicator: GW257, Metabolic Activation: NONE, Method: STANDARD PLATE); “active; positive” under setting [4]; “active; positive” under setting [5]; “active; positive” (Test System: AMES SALMONELLA TYPHIMURIUM, Strain/Indicator: TA1538, Metabolic Activation: NONE, Method: STANDARD PLATE); “active; positive” (Test System: CHINESE HAMSTER V-79, Strain/Indicator: V-79/6-THIOGUANINE, Metabolic Activation: NONE, Method: SUSPENSION/PLATE); “inactive; negative” (Test System: CHINESE HAMSTER V-79, Strain/Indicator: V-79/6-THIOGUANINE, Metabolic Activation: RAT, LIVER, HOMOGENATE, Method: SUSPENSION/PLATE).
With `Cc1ccc(C(=O)ON(OCc2ccccc2)C(=O)c2ccccc2)cc1`, the mutagenic call by setting is: under setting [5], “active; positive”; (Test System: AMES SALMONELLA TYPHIMURIUM, Strain/Indicator: TA100, Metabolic Activation: RAT, S-9, AROCLOR, Method: STANDARD PLATE) “active; positive”.
In the case of `ONc1cccc2ccccc12`, the mutagenic call runs as follows: under setting [4], “active; positive”; under setting [5], “active; positive”.
Take `O=[N+]([O-])c1ccc2c3c(cccc13)-c1cc(O)ccc1-2`: the mutagenic call runs as follows: under setting [3], “inactive; negative”; (Test System: AMES SALMONELLA TYPHIMURIUM, Strain/Indicator: TA98(NR), Metabolic Activation: NONE, Method: STANDARD PLATE) “active; positive”; under setting [4], “active; positive”; under setting [6], “active; positive”; (Test System: AMES SALMONELLA TYPHIMURIUM, Strain/Indicator: TA100(NR), Metabolic Activation: NONE, Method: STANDARD PLATE) “inactive; negative”; (Test System: AMES SALMONELLA TYPHIMURIUM, Strain/Indicator: TA100(TN5-1,8-DNP1012), Metabolic Activation: NONE, Method: STANDARD PLATE) “inactive; negative”. Further, the mutagenic call under setting [5] is “active; positive”.
Take `CC(=O)c1ccco1`: the mutagenic call is, setting by setting: under setting [4], “inactive; negative”; under setting [1], “active; positive”; under setting [5], “inactive; negative”; under setting [2], “inactive; negative”.
Take `C[C@@H]1O[C@H]1C`: the mutagenic call was “active; positive” (Test System: AMES SALMONELLA TYPHIMURIUM, Strain/Indicator: TA100, Metabolic Activation: NONE, Method: FLASK VAPORIZATION); “active; positive” under setting [5]; “active; positive” (Test System: AMES SALMONELLA TYPHIMURIUM, Strain/Indicator: TA100, Metabolic Activation: RAT, LIVER, S-9, AROCLOR 1254, Method: FLASK VAPORIZATION); “active; positive” (Test System: AMES SALMONELLA TYPHIMURIUM, Strain/Indicator: TA1535, Metabolic Activation: NONE, Method: FLASK VAPORIZATION); “active; positive” (Test System: AMES SALMONELLA TYPHIMURIUM, Strain/Indicator: TA1535, Metabolic Activation: NONE, Method: STANDARD PLATE); “active; positive” (Test System: AMES SALMONELLA TYPHIMURIUM, Strain/Indicator: TA1535, Metabolic Activation: RAT, LIVER, S-9, AROCLOR 1254, Method: FLASK VAPORIZATION).
On to `O=Cc1c2ccccc2cc2ccccc12`, for which the mutagenic call by setting is: under setting [6], “inactive; negative”; under setting [5], “inactive; negative”; (Test System: AMES SALMONELLA TYPHIMURIUM, Strain/Indicator: TA100, Metabolic Activation: RAT, LIVER, S-9, AROCLOR 1254, Method: STANDARD PLATE) “inactive; negative”.
Take `CC(C)CCC[C@@H](C)[C@H]1CC[C@H]2[C@@H]3C[C@@H]4N(N5C(=O)c6ccccc6C5=O)[C@@]45C[C@@H](Cl)CC[C@]5(C)[C@H]3CC[C@]12C` (stereo partly drawn): the mutagenic call runs as follows: (Test System: AMES SALMONELLA TYPHIMURIUM, Strain/Indicator: TA97A, Metabolic Activation: NONE, Method: STANDARD PLATE) “inactive; negative”; under setting [5], “inactive; negative”; (Test System: AMES SALMONELLA TYPHIMURIUM, Strain/Indicator: TA102, Metabolic Activation: NONE, Method: STANDARD PLATE) “inactive; negative”; (Test System: AMES SALMONELLA TYPHIMURIUM, Strain/Indicator: TA104, Metabolic Activation: NONE, Method: STANDARD PLATE) “inactive; negative”.
As for `ClCc1cc2cc3ccccc3c3ccc4cccc1c4c23`, the mutagenic call under setting [4] is “active; positive” and the mutagenic call under setting [5] was “active; positive”.
